Reference: patent US10590106B2, “Certain chemical entities, compositions, and methods” (NeuPharma, Inc., priority 2012, dated 2020)
Read-outs that look alike come from different tables or passages of the source.

How the values were obtained:
BRAF = BRAF (Homo sapiens (Human), UniProt P15056); assay: Inhibitory activity against kinase BRAF, Z'-LYTE method (Invitrogen); type: biochemical; conditions: 1 μM compound
Description: Inhibitory activities Inhibitory activities of compounds against BRAF, and BRAF V600E were measured by Invitrogen using Z′-LYTE® Method as briefly described in the following. 4× Test compounds are dissolved in 1% DMSO. […] ATP solutions are diluted to a 4×ATP working concentration in Kinase Buffer (50 mM HEPES pH 7.5, 0.01% BRIJ-35, 10 mM MgCl2, 1 mM EGTA). Reaction started by 30-second shaking of mixture consisting of 2.5 μL 4× test compound, […] and 2.5 μL 4×ATP Solution on Bar-coded Corning, low volume NBS, black 384-well plate (Corning Cat. #3676). Then the mixture was incubated for 60-minute at room temperature for the kinase reaction, followed by addition of 5 μL of a 1:1024 dilution of development reagent A and 30-second plate shake. The mixture was then incubated for another 60-minute at room temperature for development reaction. Fluorescence was read by plate reader. IC50 was calculated by plotting the concentration of compound vs the percentage of inhibition in treated wells using GraphPad Prism 5.
Table 2 and 3 show % inhibition at 1 μM of several compounds of the invention against BRAF and BRAF V600E, respectively, using Z′-LYTE® method.

BRAF V600E = BRAF V600E (Homo sapiens (Human), UniProt P15056, V600E); assay: Inhibitory activity against kinase BRAF V600E, Z'-LYTE method (Invitrogen); type: biochemical; conditions: for inhibition at 1 µM: read-out: Inhibition (% inhibition at 1 μM) against BRAF V600E
Chain of BRAF V600E (P15056 whole entry V600E): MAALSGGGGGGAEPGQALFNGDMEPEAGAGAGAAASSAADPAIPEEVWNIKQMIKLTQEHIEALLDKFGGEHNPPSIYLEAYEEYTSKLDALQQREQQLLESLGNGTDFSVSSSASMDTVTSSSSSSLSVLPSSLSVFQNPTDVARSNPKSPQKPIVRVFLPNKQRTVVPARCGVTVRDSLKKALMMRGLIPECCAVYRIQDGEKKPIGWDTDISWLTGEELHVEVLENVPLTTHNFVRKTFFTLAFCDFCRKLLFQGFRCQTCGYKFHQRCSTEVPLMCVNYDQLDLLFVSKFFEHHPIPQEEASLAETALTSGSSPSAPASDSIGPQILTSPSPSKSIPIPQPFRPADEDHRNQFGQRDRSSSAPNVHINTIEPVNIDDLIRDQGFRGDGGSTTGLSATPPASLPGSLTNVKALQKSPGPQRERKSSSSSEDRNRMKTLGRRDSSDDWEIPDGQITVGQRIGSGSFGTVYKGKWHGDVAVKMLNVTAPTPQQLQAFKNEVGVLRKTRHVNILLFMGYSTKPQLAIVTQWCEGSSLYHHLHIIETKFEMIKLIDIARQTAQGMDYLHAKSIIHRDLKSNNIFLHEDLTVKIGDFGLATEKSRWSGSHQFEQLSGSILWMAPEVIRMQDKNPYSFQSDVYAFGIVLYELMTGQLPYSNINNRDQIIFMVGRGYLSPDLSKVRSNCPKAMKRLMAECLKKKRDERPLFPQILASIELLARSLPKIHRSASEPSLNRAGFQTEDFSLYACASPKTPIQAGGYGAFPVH
How it was run: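 FRET-based Z′-LYTE peptide-phosphorylation assay in 50 mM HEPES pH 7.5, 0.01% BRIJ-35, 10 mM MgCl2, 1 mM EGTA; kinase reaction 60 min at room temperature, then 60 min development before fluorescence read. IC50 from concentration vs % inhibition; single-point % inhibition tested at 1 μM.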

KDR (VEGFR2) = KDR (VEGFR2) (Homo sapiens (Human), UniProt P35968); assay: Inhibitory activity against kinase KDR, Z'-LYTE method (Invitrogen); type: biochemical; conditions: for inhibition at 1 µM: read-out: Inhibition (% inhibition at 1 μM) against KDR
Chain of KDR (VEGFR2) (P35968 20-1356): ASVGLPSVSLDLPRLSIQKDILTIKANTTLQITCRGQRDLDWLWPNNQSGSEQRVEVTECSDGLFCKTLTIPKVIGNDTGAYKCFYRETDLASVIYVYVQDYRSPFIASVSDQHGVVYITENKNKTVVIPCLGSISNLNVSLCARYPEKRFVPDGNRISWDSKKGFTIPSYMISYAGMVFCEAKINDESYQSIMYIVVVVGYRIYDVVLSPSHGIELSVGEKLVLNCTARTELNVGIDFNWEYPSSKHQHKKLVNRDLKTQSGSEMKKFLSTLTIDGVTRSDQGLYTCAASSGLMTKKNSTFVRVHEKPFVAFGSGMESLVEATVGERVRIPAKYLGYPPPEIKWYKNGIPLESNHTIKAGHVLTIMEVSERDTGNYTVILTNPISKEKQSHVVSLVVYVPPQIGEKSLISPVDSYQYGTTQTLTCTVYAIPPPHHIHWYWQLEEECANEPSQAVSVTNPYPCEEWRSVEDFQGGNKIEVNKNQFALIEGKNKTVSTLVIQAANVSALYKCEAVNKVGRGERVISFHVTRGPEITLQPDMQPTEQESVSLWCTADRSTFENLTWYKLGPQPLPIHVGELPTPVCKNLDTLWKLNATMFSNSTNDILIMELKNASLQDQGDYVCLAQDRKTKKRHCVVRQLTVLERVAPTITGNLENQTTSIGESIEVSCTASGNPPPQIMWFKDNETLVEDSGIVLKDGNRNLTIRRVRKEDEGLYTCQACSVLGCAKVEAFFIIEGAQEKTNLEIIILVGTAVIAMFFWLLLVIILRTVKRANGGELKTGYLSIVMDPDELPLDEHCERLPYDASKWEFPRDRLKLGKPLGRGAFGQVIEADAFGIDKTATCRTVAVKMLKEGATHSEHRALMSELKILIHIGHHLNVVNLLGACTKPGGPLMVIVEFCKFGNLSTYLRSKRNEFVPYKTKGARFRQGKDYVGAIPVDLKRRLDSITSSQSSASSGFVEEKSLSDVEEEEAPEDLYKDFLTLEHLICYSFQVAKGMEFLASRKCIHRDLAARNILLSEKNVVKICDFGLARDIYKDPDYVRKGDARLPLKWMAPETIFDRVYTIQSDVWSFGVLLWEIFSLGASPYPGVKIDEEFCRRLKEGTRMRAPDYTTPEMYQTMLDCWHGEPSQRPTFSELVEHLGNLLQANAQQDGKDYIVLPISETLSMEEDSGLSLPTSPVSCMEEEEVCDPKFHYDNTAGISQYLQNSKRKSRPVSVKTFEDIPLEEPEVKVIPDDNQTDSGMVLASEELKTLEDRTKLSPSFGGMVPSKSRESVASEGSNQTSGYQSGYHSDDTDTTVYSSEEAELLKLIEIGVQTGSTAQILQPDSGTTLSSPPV
How it was run: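 Human KDR (VEGFR2) kinase inhibition was measured with Invitrogen's Z′-LYTE® method. A 2× mixture of KDR and Tyr 01 peptide is made in 50 mM HEPES pH 7.5, 0.01% BRIJ-35, 10 mM MgCl2, 1 mM EGTA. Each 10 μL reaction holds 0.5-11.7 ng enzyme and 2 μM Tyr 01. It incubates for 1 hour, then 5 μL of Development Reagent B diluted 1:256 is added.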

A375 cells = assay: Inhibition of cancer cell growth, MTT or MTS assay, A375; type: cell-based; conditions: Homo sapiens, A-375; 72 h incubation
How it was run: (§1)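 Cells in RPMI 1640 with 10% FBS were seeded at ~2000 (A375) or 4000 (A549, Colo205) per well, grown 24 h, then exposed to compound 72 h at 1% final DMSO. Read-out by MTT (570 nm) or MTS (490 nm). IC50 from concentration vs percent inhibition, triplicates.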

A549 cells = assay: Inhibition of cancer cell growth, MTT or MTS assay, A549; type: cell-based; conditions: Homo sapiens, 72 h incubation
How it was run: as §1

Colo205 cells = assay: Inhibition of cancer cell growth, MTT or MTS assay, Colo205; type: cell-based; conditions: Homo sapiens, COLO 205; 72 h incubation
Description: Inhibition of cell growth by compounds was measured using MTT or MTS assay. Tumor cell lines were purchased from ATCC (American Type Culture Collection, Manassas, Va.). All cell lines were maintained in RPMI 1640 (Hyclone) supplemented with 10% fetal bovine serum (FBS, Hyclone), glutamine (2 mM, Hyclone), and antibiotics (penicillin 100 U/mL and streptomycin 50 μg/mL) at 37° C. in a humidified atmosphere of 5% CO2 in air. Taxol (as a positive control, Sigma) and compounds were dissolved in DMSO (Sigma), and the final concentration of DMSO in the medium was 1%. Tumor cells were plated in 96-well plates at densities of about 2000 (A375) or 4000 (A549 and Colo205) cells/well of a 96-well plate and allowed to adhere/grow for 24 h. They were then treated with various concentrations of drug and incubated for 72 h. For MTT method, medium was then removed by inverting and tapping the plates. 100 μL of MTT (0.5 mg/ml) was added to each well followed by an incubated at 37° C. for 4 h. MTT was then removed and 200 μL of DMSO was added to each well, and the ODs at 570 nm were measured after a 5 second shaking cycle in a 96-well spectrophotometer. For MTS method, 20 μL MTS (CellTiter 96 Aqueous One Solution, Promega) was added to each well followed by an incubated at 37° C. for 2-4 h, solutions were then directly put in a 96-well spectrophotometer, and the ODs at 490 nm were measured.
All concentrations of compounds were tested in triplicate and controls were averaged over 4 wells. IC50 was calculated by plotting the concentration of compound vs the percentage of inhibition in treated wells using GraphPad Prism 5. […] The scale utilized in Tables […] is as follows: +++ less than 1000 nM; ++ between 1000 nM and 5000 nM; and + greater than 5000 nM. The scale utilized in Table 8 is as follows: +++ less than 2000 nM; ++ between 2000 nM and 5000 nM; and + greater than 5000 nM.

Colo205 tumor xenograft = assay: Inhibition of tumor growth in Colo205 tumor xenograft model; type: in vivo, BALB/c female nude mice; conditions: 30 mg/kg, qd × 14, i.p.; for Tumor Volume Post-treatment: after treatment; for Tumor Volume Pre-treatment: before treatment
Description: Cells were implanted in BALB/c female nude mice and grown as tumor xenografts. When tumors achieved 120-200 mm^3, mice were assigned into treatment and control groups using randomized block design based upon their tumor volumes. Each group contained 6 tumor-bearing mice. Tumors were measured twice weekly in two dimensions using a caliper, and the tumor volume was calculated from two-dimensional measurements using the equation V=0.5×a×b^2 where a and b are the long and short diameters of the tumor, respectively. Relative tumor volume (RTV) was defined as TVt/TVi, the ratio of the volume on a given day (TVt) and the volume at the start of treatment (TVi). Relative tumor growth rate (T/C) was defined as RTVT/RTVC, the ratio of relative tumor volume of treatment group (RTVT) and relative tumor volume of control group (RTVC) on a given day. Inhibition of tumor growth in a Colo205 tumor xenograft model is shown below in Table 10 for a compound of Table 1.

Chain of BRAF (P15056 whole entry): as the sequence (P15056 whole entry V600E) above, with E600V counted along it

Compound | inhibition at 1 µM (BRAF) | inhibition at 1 µM (BRAF V600E; 1 μM compound) | inhibition at 1 µM (KDR (VEGFR2); 1 μM compound) | IC50 (A375 cells) | IC50 (A549 cells) | IC50 (Colo205 cells) | IC50 (BRAF V600E) | IC50 (KDR (VEGFR2)) | T/C (relative tumor growth rate) (Colo205 tumor xenograft) | Tumor Volume Post-treatment (Colo205 tumor xenograft) | Tumor Volume Pre-treatment (Colo205 tumor xenograft) | inhibition at 1 µM (BRAF V600E) | inhibition at 1 µM (KDR (VEGFR2))
O=C(Nc1ccc(F)cc1)Nc1ccc(Oc2ccc3ncc(N4CCOCC4)nc3c2)cc1 [Compound C082, 1-(4-fluorophenyl)-3-(4-((3-morpholinoquinoxalin-6-yl)oxy)phenyl)urea] | < 70% | > 89% | 70 to 89% |  |  | > 5000 nM |  |  |  |  |  |  | 
O=C(Nc1ccc(F)c(Oc2ccc3ncc(N4CCNCC4)nc3c2)c1)Nc1ccc(Cl)c(C(F)(F)F)c1 [Compound C066, 1-(4-chloro-3-(trifluoromethyl)phenyl)-3-(4-fluoro-3-((3-(piperazin-1-yl)quinoxalin-6-yl)oxy)phenyl)urea] | < 70% | > 89% | > 89% | 1000 to 5000 nM | < 2000 nM |  |  |  |  |  |  |  | 
O=C(Nc1ccc(Oc2ccc3ncc(N4CCNCC4)nc3c2)cc1)Nc1ccc(F)c(C(F)(F)F)c1 [Compound C087, 1-(4-fluoro-3-(trifluoromethyl)phenyl)-3-(4-((3-(piperazin-1-yl)quinoxalin-6-yl)oxy)phenyl)urea] | 70 to 89% | > 89% | > 89% | 1000 to 5000 nM | < 2000 nM | 1000 to 5000 nM |  |  | 81% | 796.35 mm^3 | 237.13 mm^3 |  | 
O=C(Nc1cccc(Cl)c1)Nc1ccc(Oc2ccc3nccnc3c2)cc1F [Compound C093, 1-(3-chlorophenyl)-3-(2-fluoro-4-(quinoxalin-6-yloxy)phenyl)urea] | 70 to 89% | > 89% | 70 to 89% | > 5000 nM | > 5000 nM |  |  |  |  |  |  |  | 
N#Cc1ccc(NC(=O)Nc2cccc(Oc3ccc4nccnc4c3)c2)cc1C(F)(F)F [Compound C073, 1-(4-cyano-3-(trifluoromethyl)phenyl)-3-(3-(quinoxalin-6-yloxy)phenyl)urea] | < 70% |  |  | > 5000 nM | 2000 to 5000 nM |  |  |  |  |  |  | > 89% | 70 to 89%
O=C(Nc1cccc(Cl)c1)Nc1cccc(Oc2ccc3ncc(N4CCOCC4)nc3c2)c1 [Compound C047, 1-(3-chlorophenyl)-3-(3-((3-morpholinoquinoxalin-6-yl)oxy)phenyl)urea] | 70 to 89% | > 89% | 70 to 89% | 1000 to 5000 nM | > 5000 nM |  |  |  |  |  |  |  | 
O=C(Nc1ccc(Cl)cc1)Nc1cccc(Oc2ccc3ncc(N4CCOCC4)nc3c2)c1 [Compound C048, 1-(4-chlorophenyl)-3-(3-((3-morpholinoquinoxalin-6-yl)oxy)phenyl)urea] | 70 to 89% | > 89% | 70 to 89% | 1000 to 5000 nM | 2000 to 5000 nM |  |  |  |  |  |  |  | 

The next lines start with results.

inhibition at 1 µM (BRAF) | inhibition at 1 µM (BRAF V600E; 1 μM compound) | inhibition at 1 µM (KDR (VEGFR2); 1 μM compound) | IC50 (A375 cells) | IC50 (A549 cells) | IC50 (Colo205 cells) | IC50 (BRAF V600E) | IC50 (KDR (VEGFR2)) | Compound | T/C (relative tumor growth rate) (Colo205 tumor xenograft) | Tumor Volume Post-treatment (Colo205 tumor xenograft) | Tumor Volume Pre-treatment (Colo205 tumor xenograft) | inhibition at 1 µM (BRAF V600E) | inhibition at 1 µM (KDR (VEGFR2))
< 70% | > 89% | > 89% | < 1000 nM | < 2000 nM | < 1000 nM |  |  | O=C(Nc1ccc(Oc2ccc3ncc(N4CCNCC4)nc3c2)cc1)Nc1ccc(Cl)c(C(F)(F)F)c1 [Compound C089, 1-(4-chloro-3-(trifluoromethyl)phenyl)-3-(4-((3-(piperazin-1-yl)quinoxalin-6-yl)oxy)phenyl)urea] | 79% | 768.94 mm^3 | 233.30 mm^3 |  | 
 | > 89% | > 89% | 1000 to 5000 nM | < 2000 nM | 1000 to 5000 nM | > 100 nM | < 100 nM | O=C(Nc1cccc(Oc2ccc3nccnc3c2)c1)Nc1ccc(Cl)c(C(F)(F)F)c1 [Compound C001, 1-(4-chloro-3-(trifluoromethyl)phenyl)-3-(3-(quinoxalin-6-yloxy)phenyl)urea] |  |  |  |  | 
< 70% | > 89% | > 89% | > 5000 nM | 2000 to 5000 nM |  | > 100 nM | < 100 nM | O=C(Nc1cccc(Oc2ccc3nccnc3c2)c1)Nc1cccc(C(F)(F)F)c1 [Compound C003, 1-(3-(quinoxalin-6-yloxy)phenyl)-3-(3-(trifluoromethyl)phenyl)urea] |  |  |  |  | 
< 70% | > 89% | < 70% | 1000 to 5000 nM | > 5000 nM |  |  |  | O=C(Nc1cc(F)cc(F)c1)Nc1ccc(F)c(Oc2ccc3ncc(N4CCOCC4)nc3c2)c1 [Compound C054, 1-(3,5-difluorophenyl)-3-(4-fluoro-3-((3-morpholinoquinoxalin-6-yl)oxy)phenyl)urea] |  |  |  |  | 
< 70% | > 89% | 70 to 89% | > 5000 nM | > 5000 nM |  |  |  | O=C(Nc1cccc(Oc2ccc3nccnc3c2)c1)c1ccc(Cl)c(C(F)(F)F)c1 [Compound C006, 4-chloro-N-(3-(quinoxalin-6-yloxy)phenyl)-3-(trifluoromethyl)benzamide] |  |  |  |  | 
< 70% | > 89% | 70 to 89% | 1000 to 5000 nM | 2000 to 5000 nM |  | > 100 nM | > 100 nM | O=C(Nc1ccc(Oc2ccc3nccnc3c2)cc1)Nc1cccc(C(F)(F)F)c1 [Compound C075, 1-(4-(quinoxalin-6-yloxy)phenyl)-3-(3-(trifluoromethyl)phenyl)urea] |  |  |  |  | 
70 to 89% | > 89% | > 89% | 1000 to 5000 nM | < 2000 nM |  |  |  | O=C(Nc1ccc(F)cc1)Nc1ccc(Oc2ccc3ncc(N4CCNCC4)nc3c2)cc1 [Compound C090, 1-(4-fluorophenyl)-3-(4-((3-(piperazin-1-yl)quinoxalin-6-yl)oxy)phenyl)urea] |  |  |  |  | 
